Assay results published in patent publication EP0130882A2, “Bicyclo(3.2.1)octane carboxylic-acid derivatives, processes for their preparation and their therapeutical use” (SANOFI, priority 1983, dated 1985).
Like-named read-outs stand apart in the source and are kept apart here.

Tests used:
[1] = in vivo; set-up: species or system souris; conditions: mouse, po
Description: (§1) L'invention a donc encore pour objet un médicament ayant en particulier des activités anticonvulsivante et antianoxique caractérisé en ce qu'il contient, à titre de principe actif un dérivé de formule I. Tous les essais Toxico-pharmacologiques ont été pratiqués sur des souris mâles de souche CHARLES RIVER (CD1).
Dans le cadre de cette étude, on a déterminé l'activité sédative des composés de l'invention; on a utilisé dans ce but, le test du cylindre tournant (Boissier, J.R., Therapie 1958, 13,1074).
Ce test est destiné à apprécier l'aptitude des animaux à coordonner leurs mouvements. Il met en oeuvre un cylindre de bois, d'un diamètre de 4,8 cm, qui-tourne à la vitesse de 4 tours/mn. Le test est pratiqué sur des souris d'un poids 22 g environ. Les produits sont administrés par voie orale à différents lots de 10 animaux. Ces derniers sont placés sur l'appareil 15 minutes après l'administration du produit. On note le pourcentage de souris qui perdent le réflexe d'équilibration, c'est-à-dire qui deviennent incapables de se maintenir sur le cycindre pendant une durée de 2 minutes.
Par la méthode de Finney, on calcule une dose neuroto- xique 50 (DNT 50) qui exprime donc le niveau moyen -des premières atteintes neuromusculaires sous l'influence d'un produit étudié.

[2] = test system: Crise à l'acide B - mercaptopropionique; test: B-mercaptopropionic acid seizure test; format: in vivo, souris; conditions: oral, 15 min before acide B-mercaptopropionique 60 mg/Kg I.P., mouse; read-out: DE 50 (the source's name)
Description: as §1
L'acide B-mercaptopropionique est un inhibiteur de la glutamate-décarboxylase (GAD), enzyme qui catalyse la transformation du glutamate en acide Y-aminobutyrique (GABA). Son action se traduit donc par un abaissemement du taux de ŒBA et la survenue de crises généralisées tonico-cloniques 3 à 4 minutes après son administration. L'acide B-mercaptopropionique a été administré aux souris par voie I.P. à la dose de 60 mg/Kg. Le traitement pour les composés à tester est administré par la voie orale 15 minutes avant l'injection d'acide B-mercaptopionique. Les DE 50 exprimées en mg/Kg, ainsi déterminées sont : • Composé N° 2 = 90 • 5 = 30 • 6 = 60 • 7 = 120 • 8 = 70

[3] = test system: Crise électrique supramaximale; test: Supramaximal electroshock seizure test; format: in vivo, souris; conditions: po, 0.5 h; per os, 30 min before supramaximal electroshock (50 HZ, 60 volts, 0,4 sec.), mouse; read-out: DE 50 (hyperextension tonique)
Description: as §1
Cette expérimentation a été effectuée selon le test de Swinyard et al., (Am.J.Pharmacol, Ther., 1952,168-175). Les traitements ont été administrés per os à des lots de 10 souris 30 mn, avant l'électrochoc supramaximal (courant alternatif de 50 HZ, 60 volts pendant 0,4 sec.) délivré par l'intermédiaire d'électrodes intra-auriculaires. On note le nombre d'animaux dans chaque lot qui ne présentent pas d'hy- perextension tonique lors de la stimulation électrique trans- cranienne, et on détermine la DE 50 exprimée en mg/Kg.

[4] = test system: Crise pentétrazolique; test: Pentetrazole seizure test (protection against tonic seizures); format: in vivo, souris; conditions: read-out: DE 50 (protection contre les crises toniques)
Description: On note dans chaque lot le pourcentage de protection contre les crises toniques.

[5] = test system: Crise à la bicuculline; test: Bicuculline seizure test; format: in vivo, souris; conditions: oral, 30 min before bicuculline 0.65 mg/Kg i.v., observed for 30 min, mouse; read-out: DE 50 (convulsions toniques)
Description: as §1
Ce test a été effectué selon la méthode de Pérez de la Mora et Tapia (Biochem. Pharmacol., 1973,19,303-310). Les traitements ont été administrés par voie orale à des lots de 10 souris, 30 minutes avant l'injection de bicuculline (0.65 mg/Kg) par la voie intraveineuse. L'apparition des convulsions toniques a été notée pendant les 30 mn qui ont suivi l'injection de bicuculline. Les DE 50 en mg/Kg ainsi déterminées sont : • Composé N° 5 = 68 • 6 = 61 • 7 = 145 • 8 = 75

[6] = test system: anoxie par confinement; test: Anoxia by confinement (antianoxic activity, survival time); format: in vivo, souris; conditions: I.P. immediately before placing in closed 200 ml vessel, mouse; dose not given
Description: as §1
Cette activité a été étudiée par la méthode de l'anoxie par confinement.
Des souris (20 par lot) sont placées dans une enceinte (bocal en verre) normobare, normoxique, hermétiquement close de 200 ml. Tous les traitements sont administrés par voie I.P. immédiatement avant l'introduction dans l'enceinte. L'animal est considéré comme mort au moment de l'arrêt respiratoire.
Les bocaux choisis étant très petits, l'activité motrice des animaux est extrêmement faible, ce qui élimine en principe la possibilité d'un résultat positif par effet sédatif. On note dans chaque lot le temps de survie des animaux.

[7] = Acute oral toxicity (DL 50, Finney method); set-up: species or system souris; conditions: in vivo, mouse
Procedure: as §1
Ainsi, la DL 50 déterminée par voie orale chez la souris par la méthode Finney(Probit analysis, University Press Cambridge.,. 1971) est de 3000 mg/Kg pour le dérivé N° 5'et supérieure à 1000 mg/Kg pour tous les composés de l'invention.

[8] = oral, 15 min before pentétrazole 125 mg/Kg i.p., mouse

CC(C)C1(C(N)=O)CC2CCC(C2)C1 (stereo not shown) [dérivé N° 7, Isopropyl-3 bicyclo (3.2.1.) octane carboxamide -3]
TD50 at 0.25 h [1]: 230 mg/kg
ED50 [2]: 120 mg/kg
ED50 [3]: 260 mg/kg
ED50 [4, 8]: 120 mg/kg
ED50 [5]: 145 mg/kg

CC1(C(=O)O)CC2CCC(C2)C1 (stereo not shown) [dérivé N° 2, Méthyl-3 bicyclo (3.2.1.) octane carboxylate -3 de sodium]
TD50 at 0.25 h [1]: 600 mg/kg
ED50 [2]: 90 mg/kg
ED50 [3]: 400 mg/kg
temps de survie augmenté [6]: 15 p 100
ED50 [4, 8]: 90 mg/kg

CCCC(CCC)C(=O)O [valproate de sodium, reference compound]
ED50 ([4]; Mus musculus, po): 200 mg/kg

CCC1(C(N)=O)CC2CCC(C2)C1 (stereo not shown) [dérivé N° 6, Ethyl-3 bicyclo (3.2.1.) octane carboxamide-3]
TD50 at 0.25 h [1]: 400 mg/kg
ED50 [2]: 60 mg/kg
ED50 [3]: 210 mg/kg
ED50 [4, 8]: 75 mg/kg
ED50 [5]: 61 mg/kg

CC1(C(N)=O)CC2CCC(C2)C1 (stereo not shown) [dérivé N° 5, Méthyl-3 bicyclo (3.2.1.) octane carboxamide-3]
TD50 at 0.25 h [1]: 365 mg/kg
ED50 [2]: 30 mg/kg
ED50 [3]: 210 mg/kg
temps de survie augmenté [6]: 25 p 100
ED50 [4, 8]: 53 mg/kg
ED50 [5]: 68 mg/kg
LD50 [7]: 3000 mg/kg

CNC(=O)C1(C)CC2CCC(C2)C1 (stereo not shown) [dérivé N° 8, N-Méthyl mêthyl-3 bicyclo (3.2.1.) octane carboxamide-3]
TD50 at 0.25 h [1]: 500 mg/kg
ED50 [2]: 70 mg/kg
ED50 [3]: 310 mg/kg
ED50 [4, 8]: 115 mg/kg
ED50 [5]: 75 mg/kg
